What was measured:
YAP-TEAD interaction = assay: SK-HEP-1 reporter assay (8x TEAD responsive elements driving NanoLuc luciferase); type: cell-based; settings: Homo sapiens, SK-HEP1; SK-HEP-1 TEAD-NanoLuc reporter cells, 24 hour incubation, luciferase readout
Experimental: To identify inhibitors of YAP-TEAD interaction, 8× TEAD responsive elements driving the NanoLuc® luciferase gene were stably integrated into SK-HEP-1 cells (ECACC #: 91091816).
For the assay, cells were treated in duplicates with the test compounds in a 10-point dose, with the top concentration starting at 30 μM (final concentration in assay). After a 24 hour incubation at 37° C., 95% rH, and 5% CO2, a luciferase substrate/lysis reagent mix (NanoGlo™, Promega) was added to the cells, allowing the quantification of cellular luciferase activity.
Cell Media: The cells were cultured in the following media: MEM, +10% FBS, +1× GlutaMAX, +1 mM Sodium-Pyruvate, +100 μM Non-essential amino acids, +0.1 mg/ml Hygromycin. The media used for the assay was: MEM (w/o Phenol Red), +10% FBS, +1× GlutaMAX, +1 mM Sodium-Pyruvate, +100 μM Non-essential amino acids, +0.5% Pen/Strep
(§1) Reagents: The reagents used are listed below:
(§2) Cell culture: The cells were examined using an inverted microscope to check for health and cell density. To dissociate adherent cells, the monolayer of cells was washed once with pre-warmed PBS. After removing the PBS, 3 ml pre-warmed Accutase® was added to a F75 flask, dispersed evenly and the flask was allowed to sit in incubator for ˜4-5 minutes.
(§3) When a single cell suspension was obtained, 7 ml of prewarmed growth media was added and resuspended with the cells. The cell suspension was transferred to a sterile 15 ml conical centrifuge tube, and spun for 5 min at 300×g, RT. The supernatant was discarded and the pellet was resuspended in 10 ml of pre-warmed growth media.
(§4) The total cell count was determined, and 20 μl of the desired cell number was added to each well of a 384 well plate using a Multidrop Combi. The plates were then incubated for 24 hours at 37° C., 95% rH, and 5% CO2.
(§5) Compound treatment: 24 hours after seeding, the cells were treated with compounds.
(§6) A 1:333 dilution of compounds, diluted in DMSO, was made to get a final concentration of 0.3% DMSO per well. To transfer the compounds to the assay plate, 120 nl was shot from Labcyte low dead volume plates to the cell plates containing 20 μl media/well with the ECHO 555 liquid handling system.
(§7) After treatment, the cells were fed with 20 μl fresh pre-warmed assay media using a Multidrop combi.
The assay plates were then incubated for another 24 h at 37° C., 95% rH, and 5% CO2.
Luciferase readout: 24 h after treatment, the plates were taken out of the incubator and were allowed to equilibrate to RT. 30 μl of NanoGlo® reagent was added to the plates in the dark. Plates were shaken for 20 min on a Teleshake (˜1500 rpm) in the dark. The luminescence was then measured using an EnVision microplate reader. The IC50 values were generated using Genedata Screener®.
Experimental data in SK-HEP-1 reporter assay of the compounds shown in Table 1 are shown in Table 2 below and classified in the following groups: […]

NCI-H226 cells = assay: Viability assay in NCI-H226 (Yap-dependent) cells, CyQUANT; type: cell-based; settings: Homo sapiens, 96 hour incubation
Experimental: The ability of YAP-TEAD inhibitors to inhibit tumor cell growth was evaluated using two different cell lines: NCI-H226, which is a YAP dependent cell line, and SW620 cells, where YAP and TAZ were knocked out using CRISPR to generate a YAP independent cell line.
For the assay, cells were treated in duplicates with the test compounds in a 10-point dose, 1:3 dilution steps, with the top concentration starting at 30 μM (final concentration in assay). After a 96 hour incubation at 37° C., 95% rH, and 5% CO2, a cell-permeant DNA-binding dye that stains only healthy cells (CyQUANT®, Promega) was added to the cells, allowing the quantification of cell viability.
Cell Media: The NCI-H226 cells were cultured in the following media: RPMI 1640, +10% FBS, +1× GlutaMAX, +10 mM HEPES, +0.5% Pen/Strep. The SW620-KO cells were cultured in the following media: DMEM/F-12, +10% FBS, +1× GlutaMAX, +10 mM HEPES, +0.5% Pen/Strep.
as §1
as §2, with “health,” for “health and”, “density, etc.” for “density.”, “Accutase” for “Accutase®”
as §3, §4, §5, §6, §7
The assay plates were then incubated for 96 h at 37° C., 95% rH, and 5% CO2.
96h after treatment 30 μl of CyQuant® reagent was added to the assay plates using a Multidrop combi in the dark. The plates were then incubated for 1 hour at 37° C., 95% rH and 5% CO2. Thereafter, the assay plates were removed from the incubator and allowed to equilibrate to RT for 30 min in the dark without lid. Finally, they were measured using an EnVision microplate reader with a FITC bottom read program.
Experimental data in the Viability assay of the compounds shown in Table 1 are shown in Table 3 below and classified in the following groups: […]

Compound | IC50 (YAP-TEAD interaction) [nM] | IC50 (NCI-H226 cells) [µM]
Cc1ccc2c(c1)c1cc(C(=O)NC[C@@H](O)CO)ccc1n2-c1ccc(C(F)(F)F)cc1 (single isomer, unassigned) [Compound 68, N-[(2R or 2S)-2,3-dihydroxypropyl]-6-methyl-9-[4-(trifluoromethyl)phenyl]-9H-carbazole-3-carboxamide] | 10 to 100 | 
Cc1ccc2c(c1)c1cc(C(=O)NC[C@H](O)CO)ccc1n2-c1ccc(C(F)(F)F)cc1 (single isomer, unassigned) [Compound 69, N-[(2S or 2R)-2,3-dihydroxypropyl]-6-methyl-9-[4-(trifluoromethyl)phenyl]-9H-carbazole-3-carboxamide] | 100 to 1000 | 
O=C(O)c1ccc2c(c1)c1cc(Cc3cccc(F)c3)ccc1n2-c1ccc(C(F)(F)F)cc1 [Compound 2, 6-[(3-fluorophenyl)methyl]-9-[4-(trifluoromethyl)phenyl]-9H-carbazole-3-carboxylic acid] | 100 to 1000 | 0.1 to 1
O=C(O)c1ccc2c(c1)c1cc(Cc3ccccc3F)ccc1n2-c1ccc(C(F)(F)F)cc1 [Compound 3, 6-[(2-fluorophenyl)methyl]-9-[4-(trifluoromethyl)phenyl]-9H-carbazole-3-carboxylic acid] | 100 to 1000 | 1 to 10
O=C(O)c1ccc2c(c1)c1cc(Cc3ccc(F)cc3)ccc1n2-c1ccc(C(F)(F)F)cc1 [Compound 4, 6-[(4-fluorophenyl)methyl]-9-[4-(trifluoromethyl)phenyl]-9H-carbazole-3-carboxylic acid] | 100 to 1000 | > 10
O=C(O)c1ccc2c(c1)c1ccncc1n2-c1ccc(C(F)(F)F)cc1 [Compound 5, 9-[4-(trifluoromethyl)phenyl]-9H-pyrido[3,4-b]indole-6-carboxylic acid] | 100 to 1000 | 0.1 to 1
O=C(O)c1ccc2c(c1)c1cnccc1n2-c1ccc(C(F)(F)F)cc1 [Compound 7, 5-[4-(trifluoromethyl)phenyl]-5H-pyrido[4,3-b]indole-8-carboxylic acid] | > 1000 | > 10
N#Cc1ccc2c(c1)c1cc(C(=O)O)ccc1n2-c1ccc(C(F)(F)F)cc1 [Compound 12, 6-cyano-9-[4-(trifluoromethyl)phenyl]-9H-carbazole-3-carboxylic acid] | 10 to 100 | 1 to 10
O=C(O)c1ccc2c(c1)c1cc(OC(F)(F)F)ccc1n2-c1ccc(C(F)(F)F)cc1 [Compound 15, 6-(trifluoromethoxy)-9-[4-(trifluoromethyl)phenyl]-9H-carbazole-3-carboxylic acid] | 10 to 100 | 0.001 to 0.1
O=C(O)c1cc2c3ccccc3n(Cc3ccc(C(F)(F)F)cc3)c2cn1 [Compound 32, 9-{[4-(trifluoromethyl)phenyl]methyl}-9H-pyrido[3,4-b]indole-3-carboxylic acid] | > 1000 | 
O=C(NC1CC1)c1cc2c3cccnc3n(-c3ccc(C(F)(F)F)cc3)c2cn1 [Compound 36, N-cyclopropyl-8-[4-(trifluoromethyl)phenyl]-5,8,10-triazatricyclo[7.4.0.0^2,^7]trideca-1(9),2(7),3,5,10,12-hexaene-4-carboxamide] | 100 to 1000 | 0.1 to 1
Cc1ccc2c(c1)c1cc(C(=O)NC3CC3)ccc1n2-c1ccc(C(F)(F)F)cc1 [Compound 37, N-cyclopropyl-6-methyl-9-[4-(trifluoromethyl)phenyl]-9H-carbazole-3-carboxamide] | 10 to 100 | 0.001 to 0.1
Cc1ccc2c(c1)c1cc(C(=O)NCCO)ccc1n2-c1ccc(C(F)(F)F)cc1 [Compound 38, N-(2-hydroxyethyl)-6-methyl-9-[4-(trifluoromethyl)phenyl]-9H-carbazole-3-carboxamide] | 10 to 100 | 0.001 to 0.1
Cc1ccc2c(c1)c1cc(C(=O)NCC(O)C(F)(F)F)ccc1n2-c1ccc(C(F)(F)F)cc1 (centres unmarked) [Compound 60, 6-methyl-N-(3,3,3-trifluoro-2-hydroxypropyl)-9-[4-(trifluoromethyl)phenyl]-9H-carbazole-3-carboxamide] | 100 to 1000 | 
Cc1ccc2c(c1)c1cc(C(=O)NCc3ccccn3)ccc1n2-c1ccc(OC(F)(F)F)cc1 [Compound 64, 6-methyl-N-[(pyridin-2-yl)methyl]-9-[4-(trifluoromethoxy)phenyl]-9H-carbazole-3-carboxamide] | > 1000 | 
Cc1ccc2c(c1)c1cc(C(=O)NCc3ncccn3)ccc1n2-c1ccc(OC(F)(F)F)cc1 [Compound 65, 6-methyl-N-[(pyrimidin-2-yl)methyl]-9-[4-(trifluoromethoxy)phenyl]-9H-carbazole-3-carboxamide] | > 1000 | 
Cc1ccc2c(c1)c1cc(C(=O)NCc3cnccn3)ccc1n2-c1ccc(OC(F)(F)F)cc1 [Compound 66, 6-methyl-N-[(pyrazin-2-yl)methyl]-9-[4-(trifluoromethoxy)phenyl]-9H-carbazole-3-carboxamide] | > 1000 | 
Cc1ccc2c(n1)c1cc(C(N)=O)ccc1n2-c1ccc(C(F)(F)F)cc1 [Compound 67, 2-methyl-5-[4-(trifluoromethyl)phenyl]-5H-pyrido[3,2-b]indole-8-carboxamide] | 10 to 100 | 
Cc1cc2c3cc(C(=O)NC4CC4)ccc3n(-c3ccc(C(F)(F)F)cc3)c2cc1C [Compound 70, N-cyclopropyl-6,7-dimethyl-9-[4-(trifluoromethyl)phenyl]-9H-carbazole-3-carboxamide] | 10 to 100 | 
Cc1ccc2c(c1)c1cc(C(=O)N[C@H](C)CO)ccc1n2-c1ccc(C(F)(F)F)cc1 [Compound 71, N-[(2R)-1-hydroxypropan-2-yl]-6-methyl-9-[4-(trifluoromethyl)phenyl]-9H-carbazole-3-carboxamide] | 100 to 1000 | 
Cc1ccc2c(c1)c1cc(C(=O)N[C@@H](C)CO)ccc1n2-c1ccc(C(F)(F)F)cc1 [Compound 72, N-[(2S)-1-hydroxypropan-2-yl]-6-methyl-9-[4-(trifluoromethyl)phenyl]-9H-carbazole-3-carboxamide] | 100 to 1000 | 
Cc1ccc2c(c1)c1cc(C(=O)NCc3ccncn3)ccc1n2-c1ccc(OC(F)(F)F)cc1 [Compound 73, 6-methyl-N-[(pyrimidin-4-yl)methyl]-9-[4-(trifluoromethoxy)phenyl]-9H-carbazole-3-carboxamide] | > 1000 | 
CNC(=O)c1ccc2c(c1)c1cc(C)c(C)cc1n2-c1ccc(C(F)(F)F)cc1 [Compound 74, N,6,7-trimethyl-9-[4-(trifluoromethyl)phenyl]-9H-carbazole-3-carboxamide] | 1 to 10 | 
Cc1cc2c3cc(C(=O)NCCO)ccc3n(-c3ccc(C(F)(F)F)cc3)c2cc1C [Compound 75, N-(2-hydroxyethyl)-6,7-dimethyl-9-[4-(trifluoromethyl)phenyl]-9H-carbazole-3-carboxamide] | 10 to 100 | 
Cc1cc2c3cc(C(N)=O)ccc3n(-c3ccc(C(F)(F)F)cc3)c2cc1C [Compound 76, 6,7-dimethyl-9-[4-(trifluoromethyl)phenyl]-9H-carbazole-3-carboxamide] | 10 to 100 | 

From patent US20230278958A1 (Merck Patent GmbH, priority 2020, published 2023)
